Experiments:
[1] = molecular target: Mitogen-activated protein kinase 3 (Homo sapiens, UniProt P27361)
KB [2] = assay: cells; settings: Homo sapiens
[3] = molecular target: Calcium/calmodulin-dependent protein kinase type II subunit gamma (Homo sapiens) (UniProt Q13555)
KB [4] = assay: cells; settings: Homo sapiens; remark: listed apart in the source
[5] = molecular target: Serine/threonine-protein kinase PLK1 (Homo sapiens) (UniProt P53350)
[6] = molecular target: Cyclin-dependent kinase-like 1 (Homo sapiens) (UniProt Q00532)
[7] = molecular target: cAMP-dependent protein kinase catalytic subunit alpha (Homo sapiens) (UniProt P17612)
[8] = molecular target: T1, Mitogen-activated protein kinase kinase kinase 5 (Homo sapiens) (UniProt Q99683)
T1 sequence (whole entry): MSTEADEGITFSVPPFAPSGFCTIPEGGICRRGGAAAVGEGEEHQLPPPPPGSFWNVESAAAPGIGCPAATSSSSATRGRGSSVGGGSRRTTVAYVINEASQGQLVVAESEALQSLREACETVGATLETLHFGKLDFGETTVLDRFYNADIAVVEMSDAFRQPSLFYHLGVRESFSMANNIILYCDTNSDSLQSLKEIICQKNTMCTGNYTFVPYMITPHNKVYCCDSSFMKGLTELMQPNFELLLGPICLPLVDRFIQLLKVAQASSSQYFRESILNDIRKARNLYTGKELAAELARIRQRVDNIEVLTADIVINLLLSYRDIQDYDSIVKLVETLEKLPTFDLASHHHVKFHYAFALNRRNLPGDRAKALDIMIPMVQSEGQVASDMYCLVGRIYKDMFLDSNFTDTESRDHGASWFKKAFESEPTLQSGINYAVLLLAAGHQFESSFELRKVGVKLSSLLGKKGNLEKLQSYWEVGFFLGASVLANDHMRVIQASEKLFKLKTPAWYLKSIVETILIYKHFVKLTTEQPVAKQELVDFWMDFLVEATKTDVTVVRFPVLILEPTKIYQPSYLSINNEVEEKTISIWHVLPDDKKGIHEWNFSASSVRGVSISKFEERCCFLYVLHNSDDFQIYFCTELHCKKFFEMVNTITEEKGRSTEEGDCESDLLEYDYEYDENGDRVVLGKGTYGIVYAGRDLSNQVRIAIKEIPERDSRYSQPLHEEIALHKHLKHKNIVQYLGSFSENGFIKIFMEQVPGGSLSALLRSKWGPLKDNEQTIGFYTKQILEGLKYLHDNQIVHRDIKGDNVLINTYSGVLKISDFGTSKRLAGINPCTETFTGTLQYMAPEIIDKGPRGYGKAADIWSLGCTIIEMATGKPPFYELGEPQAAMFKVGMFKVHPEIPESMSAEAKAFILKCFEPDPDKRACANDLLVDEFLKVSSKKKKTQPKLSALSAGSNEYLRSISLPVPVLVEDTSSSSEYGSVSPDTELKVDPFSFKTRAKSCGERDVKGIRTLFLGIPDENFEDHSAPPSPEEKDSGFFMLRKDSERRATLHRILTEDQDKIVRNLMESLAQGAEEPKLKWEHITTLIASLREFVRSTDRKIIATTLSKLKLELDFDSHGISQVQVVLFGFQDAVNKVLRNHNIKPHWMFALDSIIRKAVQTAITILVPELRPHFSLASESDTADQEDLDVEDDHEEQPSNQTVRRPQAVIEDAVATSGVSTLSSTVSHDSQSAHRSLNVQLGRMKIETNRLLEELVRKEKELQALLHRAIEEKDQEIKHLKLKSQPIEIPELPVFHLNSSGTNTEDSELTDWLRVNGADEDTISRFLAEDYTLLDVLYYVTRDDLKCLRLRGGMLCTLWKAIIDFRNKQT

[9] = molecular target: Serine/threonine-protein kinase pim-1 (Homo sapiens) (UniProt P11309)
[10] = molecular target: T2, Serine/threonine-protein kinase Nek2 (Homo sapiens) (UniProt P51955)
T2 sequence (whole entry): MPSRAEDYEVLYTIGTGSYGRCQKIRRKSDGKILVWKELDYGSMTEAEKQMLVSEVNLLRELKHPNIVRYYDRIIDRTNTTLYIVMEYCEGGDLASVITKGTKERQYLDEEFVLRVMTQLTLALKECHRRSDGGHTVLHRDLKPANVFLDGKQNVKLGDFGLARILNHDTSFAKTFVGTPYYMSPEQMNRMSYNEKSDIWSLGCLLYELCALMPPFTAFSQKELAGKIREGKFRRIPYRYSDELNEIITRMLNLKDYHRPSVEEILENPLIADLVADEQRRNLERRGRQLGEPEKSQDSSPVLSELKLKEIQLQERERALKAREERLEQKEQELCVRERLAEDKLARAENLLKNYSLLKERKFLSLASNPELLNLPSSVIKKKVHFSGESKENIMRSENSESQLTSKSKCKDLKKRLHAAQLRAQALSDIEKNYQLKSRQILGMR

[11] = Binding affinity at PKC
[12] = molecular target: Myosin light chain kinase, smooth muscle (Homo sapiens, UniProt Q15746); assay: Binding affinity at MLCK
[13] = molecular target: Calcium/calmodulin-dependent protein kinase kinase 2 (Homo sapiens, UniProt Q96RR4); assay: Inhibition of CaM-KKbeta
[14] = molecular target: Serine/threonine-protein kinase VRK2 (Homo sapiens) (UniProt Q86Y07)
[15] = molecular target: Vascular endothelial growth factor receptor 2 (Homo sapiens, UniProt P35968)
[16] = molecular target: T3, Epidermal growth factor receptor (Homo sapiens, UniProt P00533)
[17] = molecular target: Cyclin-dependent kinase 2 (Homo sapiens, UniProt P24941)
[18] = molecular target: T3, Epidermal growth factor receptor; remark: listed apart in the source
TGF-beta receptor type-1 = TGF-beta receptor type-1 (Homo sapiens, UniProt P36897)
[19] = Inhibition of Cdk2/cyclin B
[20] = Binding affinity at PKA
[21] = Binding affinity at ROCK
NT2 = assay: Inhibition of lysophosphatidic acid-induced MARCKS phosphorylation in human NT2 cells; assay type: functional, cell-based
[22] = molecular target: Proto-oncogene tyrosine-protein kinase Src (Homo sapiens, UniProt P12931); assay: Inhibition of Src; settings: read-out: IC50

Serine/threonine-protein kinase pim-1 (Homo sapiens), sequence (P11309 whole entry, looked up): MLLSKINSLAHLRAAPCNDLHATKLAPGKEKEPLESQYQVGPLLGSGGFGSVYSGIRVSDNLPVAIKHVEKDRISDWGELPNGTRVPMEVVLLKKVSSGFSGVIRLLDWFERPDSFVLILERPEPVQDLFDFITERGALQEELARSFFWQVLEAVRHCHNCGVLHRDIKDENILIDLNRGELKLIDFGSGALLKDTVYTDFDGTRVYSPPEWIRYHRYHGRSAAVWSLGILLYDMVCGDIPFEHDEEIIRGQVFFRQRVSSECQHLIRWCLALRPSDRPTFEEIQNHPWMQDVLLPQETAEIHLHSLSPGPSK
Cyclin-dependent kinase-like 1 (Homo sapiens), sequence (Q00532 whole entry): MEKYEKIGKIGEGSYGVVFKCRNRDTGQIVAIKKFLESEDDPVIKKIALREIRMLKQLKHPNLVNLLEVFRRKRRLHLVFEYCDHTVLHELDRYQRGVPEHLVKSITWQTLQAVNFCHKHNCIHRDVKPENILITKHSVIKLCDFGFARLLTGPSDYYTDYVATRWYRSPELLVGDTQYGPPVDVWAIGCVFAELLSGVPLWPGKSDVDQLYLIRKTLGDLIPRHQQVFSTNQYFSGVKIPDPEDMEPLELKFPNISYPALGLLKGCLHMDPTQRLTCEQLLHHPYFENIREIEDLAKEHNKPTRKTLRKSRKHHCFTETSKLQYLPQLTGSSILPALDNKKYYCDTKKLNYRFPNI
Serine/threonine-protein kinase VRK2 (Homo sapiens), sequence (Q86Y07 whole entry): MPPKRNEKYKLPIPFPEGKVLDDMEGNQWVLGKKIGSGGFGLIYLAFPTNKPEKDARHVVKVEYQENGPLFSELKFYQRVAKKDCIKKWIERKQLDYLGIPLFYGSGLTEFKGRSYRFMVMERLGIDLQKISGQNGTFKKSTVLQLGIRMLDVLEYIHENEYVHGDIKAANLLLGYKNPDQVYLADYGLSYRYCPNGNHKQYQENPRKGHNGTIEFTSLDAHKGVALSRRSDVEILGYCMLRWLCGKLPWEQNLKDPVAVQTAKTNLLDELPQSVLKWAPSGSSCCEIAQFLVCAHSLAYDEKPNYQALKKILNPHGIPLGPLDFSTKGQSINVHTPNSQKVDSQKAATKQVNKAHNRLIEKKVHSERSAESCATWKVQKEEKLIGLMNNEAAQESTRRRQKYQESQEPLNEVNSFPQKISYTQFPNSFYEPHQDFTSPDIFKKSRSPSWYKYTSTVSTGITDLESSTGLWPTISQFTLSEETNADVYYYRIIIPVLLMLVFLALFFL
Serine/threonine-protein kinase PLK1 (Homo sapiens), sequence (P53350 whole entry): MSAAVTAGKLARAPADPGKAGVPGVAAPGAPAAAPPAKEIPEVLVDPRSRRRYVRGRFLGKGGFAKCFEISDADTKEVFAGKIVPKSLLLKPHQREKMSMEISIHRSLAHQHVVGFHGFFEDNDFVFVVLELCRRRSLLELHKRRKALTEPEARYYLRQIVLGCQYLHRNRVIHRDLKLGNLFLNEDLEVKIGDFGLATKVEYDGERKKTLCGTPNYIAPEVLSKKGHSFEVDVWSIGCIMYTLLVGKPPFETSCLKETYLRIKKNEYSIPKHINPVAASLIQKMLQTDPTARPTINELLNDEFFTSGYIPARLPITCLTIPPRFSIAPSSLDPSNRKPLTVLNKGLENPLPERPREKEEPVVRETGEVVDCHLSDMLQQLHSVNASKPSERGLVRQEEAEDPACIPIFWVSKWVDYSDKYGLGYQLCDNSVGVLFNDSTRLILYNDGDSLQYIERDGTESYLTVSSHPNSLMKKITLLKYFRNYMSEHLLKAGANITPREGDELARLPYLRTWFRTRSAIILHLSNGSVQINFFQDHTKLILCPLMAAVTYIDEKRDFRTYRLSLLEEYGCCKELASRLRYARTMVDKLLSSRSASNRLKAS
Mitogen-activated protein kinase 3, sequence (P27361 whole entry): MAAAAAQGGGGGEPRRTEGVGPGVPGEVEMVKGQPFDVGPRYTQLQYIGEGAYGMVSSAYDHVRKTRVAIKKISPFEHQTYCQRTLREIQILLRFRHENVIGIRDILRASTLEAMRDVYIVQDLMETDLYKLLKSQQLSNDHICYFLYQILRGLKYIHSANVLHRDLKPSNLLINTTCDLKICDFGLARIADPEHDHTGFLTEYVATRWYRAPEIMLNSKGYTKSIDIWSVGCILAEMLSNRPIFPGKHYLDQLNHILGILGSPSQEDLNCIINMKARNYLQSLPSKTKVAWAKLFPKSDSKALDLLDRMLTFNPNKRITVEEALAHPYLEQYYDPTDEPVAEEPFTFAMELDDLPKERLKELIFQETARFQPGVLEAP
Calcium/calmodulin-dependent protein kinase type II subunit gamma (Homo sapiens), sequence (Q13555 whole entry): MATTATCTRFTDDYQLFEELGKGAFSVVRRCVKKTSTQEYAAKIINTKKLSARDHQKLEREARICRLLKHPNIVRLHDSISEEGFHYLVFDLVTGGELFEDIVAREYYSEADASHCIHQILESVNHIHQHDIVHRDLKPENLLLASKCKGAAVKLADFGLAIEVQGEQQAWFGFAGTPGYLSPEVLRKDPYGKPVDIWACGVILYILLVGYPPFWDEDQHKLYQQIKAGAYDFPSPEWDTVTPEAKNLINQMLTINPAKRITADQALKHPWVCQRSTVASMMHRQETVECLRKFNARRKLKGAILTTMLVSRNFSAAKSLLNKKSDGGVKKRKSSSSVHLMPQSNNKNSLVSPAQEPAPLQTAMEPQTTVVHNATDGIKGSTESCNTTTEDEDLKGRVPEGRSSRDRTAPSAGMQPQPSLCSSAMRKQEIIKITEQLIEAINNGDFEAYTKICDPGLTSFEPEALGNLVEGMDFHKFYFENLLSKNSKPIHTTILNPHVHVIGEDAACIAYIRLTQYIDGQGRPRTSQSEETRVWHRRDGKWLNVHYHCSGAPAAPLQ
Myosin light chain kinase, smooth muscle, sequence (Q15746 whole entry): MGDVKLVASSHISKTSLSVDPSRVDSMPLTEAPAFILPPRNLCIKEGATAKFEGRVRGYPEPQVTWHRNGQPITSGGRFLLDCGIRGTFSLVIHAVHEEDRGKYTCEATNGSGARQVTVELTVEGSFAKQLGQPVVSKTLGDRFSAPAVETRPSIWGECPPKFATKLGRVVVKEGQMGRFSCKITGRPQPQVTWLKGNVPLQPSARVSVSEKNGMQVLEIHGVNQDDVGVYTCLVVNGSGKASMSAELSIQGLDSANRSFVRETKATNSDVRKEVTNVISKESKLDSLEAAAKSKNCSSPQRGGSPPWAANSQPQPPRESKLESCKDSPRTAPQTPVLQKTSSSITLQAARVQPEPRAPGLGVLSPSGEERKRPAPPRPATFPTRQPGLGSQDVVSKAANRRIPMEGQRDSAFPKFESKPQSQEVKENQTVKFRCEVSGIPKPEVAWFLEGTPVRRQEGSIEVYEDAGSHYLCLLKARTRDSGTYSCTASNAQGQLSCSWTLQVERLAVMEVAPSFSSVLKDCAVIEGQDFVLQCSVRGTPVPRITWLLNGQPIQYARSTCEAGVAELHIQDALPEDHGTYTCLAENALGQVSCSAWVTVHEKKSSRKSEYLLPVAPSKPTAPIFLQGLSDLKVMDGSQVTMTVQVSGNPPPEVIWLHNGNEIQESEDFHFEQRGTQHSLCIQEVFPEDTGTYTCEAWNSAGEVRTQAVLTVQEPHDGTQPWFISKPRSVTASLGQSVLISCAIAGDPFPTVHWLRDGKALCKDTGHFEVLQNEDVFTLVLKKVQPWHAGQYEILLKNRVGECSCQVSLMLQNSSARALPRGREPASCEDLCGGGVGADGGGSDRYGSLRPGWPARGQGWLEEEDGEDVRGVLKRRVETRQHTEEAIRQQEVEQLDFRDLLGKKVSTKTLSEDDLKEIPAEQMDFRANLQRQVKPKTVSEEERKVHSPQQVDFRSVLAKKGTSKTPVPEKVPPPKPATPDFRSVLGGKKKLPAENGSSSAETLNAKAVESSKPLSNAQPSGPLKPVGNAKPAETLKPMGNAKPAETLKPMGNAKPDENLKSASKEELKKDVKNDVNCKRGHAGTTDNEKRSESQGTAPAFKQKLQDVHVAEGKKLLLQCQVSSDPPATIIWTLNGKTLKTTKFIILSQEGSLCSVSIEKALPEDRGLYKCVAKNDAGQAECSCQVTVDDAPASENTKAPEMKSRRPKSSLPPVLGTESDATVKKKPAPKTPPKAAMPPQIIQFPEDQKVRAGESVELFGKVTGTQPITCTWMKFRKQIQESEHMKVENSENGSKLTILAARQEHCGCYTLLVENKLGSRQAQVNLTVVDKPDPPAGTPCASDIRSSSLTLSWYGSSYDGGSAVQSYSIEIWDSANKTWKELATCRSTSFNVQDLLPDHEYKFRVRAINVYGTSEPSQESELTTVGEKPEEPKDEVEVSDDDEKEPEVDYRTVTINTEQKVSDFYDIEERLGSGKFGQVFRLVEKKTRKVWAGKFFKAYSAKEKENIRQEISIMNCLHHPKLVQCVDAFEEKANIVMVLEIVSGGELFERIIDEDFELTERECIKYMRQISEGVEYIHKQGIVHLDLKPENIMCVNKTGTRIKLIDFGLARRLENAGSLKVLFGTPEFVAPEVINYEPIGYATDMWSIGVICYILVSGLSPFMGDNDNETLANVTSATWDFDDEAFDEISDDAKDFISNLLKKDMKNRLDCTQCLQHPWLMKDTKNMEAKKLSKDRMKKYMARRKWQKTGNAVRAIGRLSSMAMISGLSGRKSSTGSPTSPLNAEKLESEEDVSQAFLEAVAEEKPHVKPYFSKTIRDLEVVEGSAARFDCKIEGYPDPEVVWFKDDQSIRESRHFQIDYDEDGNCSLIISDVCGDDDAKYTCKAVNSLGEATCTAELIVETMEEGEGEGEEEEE

Structure (SMILES)	ΔTm [1]	ΔTm [3]	ΔTm [5]	ΔTm [6]	ΔTm [7]	ΔTm [8]	ΔTm [9]	ΔTm [10]	ΔTm [14]	further results
CN1CCC(Nc2ncc3ncnc(Nc4ccc(F)c(Cl)c4)c3n2)CC1 [FALNIDAMOL]	1.7 °C	1.4 °C	1.1 °C	3.2 °C	0.4 °C	1.3 °C	5.2 °C	2.4 °C		IC50 (KB [2]): 1.82 nM; IC50 (KB [4]): 3200 nM
O=S(=O)(NCCNC/C=C/c1ccc(Br)cc1)c1cccc2cnccc12	-0.3 °C	0 °C	1 °C	-0.1 °C	6.9 °C	-0.3 °C	-0.2 °C	-0.2 °C	0.1 °C	Ki [11]: 31700 nM; Ki [12]: 28300 nM; Ki [13]: 29700 nM
NC(=O)c1ccc(-c2nc(-c3ccc4c(c3)OCCO4)c(-c3ccccn3)[nH]2)cc1	-0.1 °C	0.3 °C	-0.5 °C	-0.3 °C	-0.3 °C	0.3 °C	-0.5 °C	1.1 °C	0.5 °C	IC50 (TGF-beta receptor type-1): 500 nM
NC1=NC(=O)/C(=C2\CCNC(=O)c3[nH]c(Br)cc32)N1 [HYMENIALDISINE]	0.9 °C	0.2 °C	5.8 °C	0.6 °C	0.8 °C	10.4 °C	0.7 °C	0.8 °C	0.8 °C	IC50 [19]: 40 nM
Cc1cncc2cccc(S(=O)(=O)N3CCCNC[C@@H]3C)c12	0.2 °C	2.9 °C	0.7 °C	0.1 °C	3.5 °C	1.8 °C	0.7 °C	-0.2 °C	1.2 °C	Ki [20]: 630 nM; Ki [11]: 9270 nM; Ki [12]: 10100 nM; Ki [21]: 1.6 nM; IC50 (NT2): 2500 nM
COC(=O)[C@]1(O)C[C@@H]2O[C@@]1(C)n1c3ccccc3c3c4c(c5c6ccccc6n2c5c31)C(=O)NC4 (single isomer, unassigned)	2 °C	6.5 °C	2.6 °C	6.9 °C	7.1 °C	12.7 °C	3.7 °C	1.9 °C	-0.2 °C	

Continued, in another order:

ΔTm [1]	ΔTm [3]	ΔTm [5]	ΔTm [6]	ΔTm [7]	ΔTm [8]	ΔTm [9]	ΔTm [10]	ΔTm [14]	Structure (SMILES)	further results
-0.1 °C	0.5 °C	0.4 °C	1.2 °C	0.5 °C	0.3 °C	0.8 °C	2.1 °C	0.7 °C	CC(C)c1cc(/C=C(\C#N)C(=O)NCCCc2ccccc2)cc(C(C)C)c1O	IC50 [15]: 700 nM
0.2 °C	0.1 °C	0.3 °C	-0.1 °C	0.4 °C	1.2 °C	0.6 °C	1 °C	0.3 °C	O=C(O)/C=C/c1cc(CO)ccc1CO	IC50 [16]: 780 nM
0.4 °C	0.1 °C	0.5 °C	0.1 °C	0.2 °C	1 °C	-1.3 °C	0.3 °C	0.6 °C	CC(C)n1cnc2c(NCc3ccccc3O)nc(NCCCO)nc21	IC50 [17]: 80 nM
0.3 °C	0 °C	-0.1 °C	0.3 °C	0.6 °C	-0.6 °C	0.2 °C	0.7 °C	-0.1 °C	O=c1ccc2ccc(O)c(O)c2o1 [DAPHNETIN]	IC50 [18]: 7670 nM
0.1 °C	0.3 °C	1.1 °C	-5.5 °C	0.8 °C	0.1 °C	-1.1 °C	1.1 °C	0 °C	CC(C)(C)c1cc(C=C2C(=O)C=CC2=O)cc(C(C)(C)C)c1O	IC50 [22]: 2200 nM
2.1 °C	5.4 °C	-0.7 °C	5.4 °C	-0.7 °C	5.7 °C	1.7 °C	1.4 °C	4.3 °C	O=C1Nc2ccc(I)cc2/C1=C1/Nc2ccccc2/C1=N\O	
0.4 °C	-0.1 °C	-1.4 °C	0.8 °C	1 °C	0.4 °C	3.4 °C	3.3 °C	1.2 °C	Nc1cc2ncnc(Nc3cccc(Br)c3)c2cc1N	
0.5 °C	-0.3 °C	0.5 °C	-2.8 °C	1 °C	1.7 °C	2.5 °C	-2.2 °C	1.7 °C	O=C1Nc2ccc(I)cc2/C1=C\c1cc(Br)c(O)c(Br)c1	
0.5 °C	-0.2 °C	0.7 °C	-0.1 °C	0.4 °C	-0.2 °C	1.6 °C	1.4 °C	0.3 °C	N#C/C(=C\c1ccc(O)c(O)c1)C(=O)Nc1ccccc1	

Reference: ChEMBL document CHEMBL1145498, “A systematic interaction map of validated kinase inhibitors with Ser/Thr kinases” (Proc Natl Acad Sci U S A, 2007)
